Ends that are not written are not given here.

The subject of data set [1] is MDA231 human breast cancer cell. The following applies: concentration-dependent.
A further data set has as its system EO771. Kind of data set: cytotoxicity against cancer cells by poly6-treated DC2.4 cells, FACS. The format is cell-based, murine. As to the method:
(§1) FIG. 7 illustrates the results of confirming that the cytotoxicity of various cancer cell lines (MC38, B16F10, and EO771) was reduced when iNOS formation was inhibited by L-NAME (5 mM) treatment while stimulating DC2.4 cells with poly6 for 24 hours (statistical significance was tested by Student's t-test. *, P<0.05; **, P<0.01; and ***, P<0.001).

Data set [2] relates to PanO2 murine pancreatic cancer cell. The following applies: concentration-dependent.
For data set [3], the system named is MC38 murine colon cancer cell. Kind of data set: cytotoxicity against cancer cells by poly6-treated DC2.4 cells, FACS. The format is cell-based. As to the method: as §1
Data set [4] has as its system B16F10 murine melanoma cancer cell. Described as above. The format is cell-based. The procedure: as §1
[5] abbreviates: DC2.4 treated with 10 μM of poly6 vs LPS (1 μg/ml).
Where [6] appears, read: L-NAME 5 mM while stimulating DC2.4 with poly6 for 24 hours.

Turning to GRLVFQ [poly6, GRLVFQ], the “cytotoxicity by poly6-stimulated DC2.4 cells” value (in data set [1]; in the data set with EO771 (concentration-dependent); in data set [2]; in data set [3] (concentration-dependent); in data set [4] (concentration-dependent)) was “cytotoxicity was induced” in each case. In addition, the “cytotoxicity against cancer cells compared to LPS” value in data set [3] (setting [5]) and in data set [4] (setting [5]) was “statistically significantly increased” in each case.
For `COC(=O)[C@@H](N)CCCNC(=N)N[N+](=O)[O-]` [L-NAME, reference compound], the “cytotoxicity when iNOS formation was inhibited” value (with EO771 (setting [6]); in data set [3] (setting [6]); in data set [4] (setting [6])) was “reduced” each time.

Source of the values: patent US20230293676A1, “Pharmaceutical Composition Comprising Hepatitis B Virus-Derived Polypeptide for Prevention or Treatment of Cancer” (priority 2020, published 2023).
